Measurements reported in US12268661B2, “Methods of treating ascites” (Martin Pharmaceuticals, Inc., priority 2019, dated 2025).
Where two headings read alike, the source gives them in different places.

Legend:
[1] = test system: cirrhotic patients with refractory ascites; test: Open-label, single-arm clinical study of docarpamine in cirrhotic subjects with refractory ascites; assay type: in vivo, human
Experimental: An open-label, single-arm study in which each subject serves as his/her own control is conducted. The study assesses the effect of DCP treatment on ascites formation in cirrhotic subjects with RA, by examining the frequency of LVP and the volume of ascitic fluid drained. All subjects participate in a 90-day open-label treatment period. […] Ascites history (relevant medications, LVP dates, and volume of drained fluid) for the 90 days prior to treatment and the 90 days after treatment are collected and used for comparison with on-treatment frequency and volume. The study population consists of cirrhotic patients between 18 and 70 years of age, inclusive, with refractory ascites, subject to the following inclusion and exclusion criteria. • Patients 18 years to 70 years of age. • Documented cirrhosis of the liver. • Refractory ascites, defined as ascites not manageable with diuretics and diet restriction, managed with periodic large volume therapeutic paracentesis. • Patients must have therapeutic […] 3 days prior to enrollment and a documented minimum of 3 additional therapeutic […] 90 days prior to enrollment, with at least 1 every 30 days. • Outpatient, with expected survival of at least 6 months. • Willing and able to complete an informed consent form. […] Results

[2] = Dopamine levels after oral administration of docarpamine in non-Asian versus Asian populations; assay type: in vivo, human; conditions: non-Asian (especially Caucasian) compared to Asian (especially Japanese) populations
[3] = test system: RA patients; conditions: small cohort of RA patients (Funasaki 1999); cited from earlier work
[4] = test system: patients with RA; conditions: cited from earlier work
[5] = oral administration, high rates of metabolism in gut/small intestine and liver, cited from earlier work
[6] = test system: dopamine receptors, beta1 adrenoceptors, alpha-adrenoceptors; conditions: cited from earlier work
[7] = dopamine 2 ug/kg/min, patients with RA (Lin 1998)

SMILES: CCOC(=O)Oc1ccc(CCNC(=O)[C@H](CCSC)NC(C)=O)cc1OC(=O)OCC [docarpamine]
- dose groups in which effects are observed ([1]; 750 mg 3 times per day (2250 mg) versus 1500 mg 3 times per day (4500 mg), 90 days): only in the high dose (4500 mg per day group)
- time without requiring LVP ([1]; 1500 mg 3 times per day (4500 mg per day), 90 days treatment): Some patients do not require LVP for more than one month and others do not require LVP for more than two months
- renin and/or aldosterone levels ([1]; 4500 mg per day group, 90 days): reduced, in some cases to normal, in many patients
- sodium excretion and other markers of renal function ([1]; 4500 mg per day group, 90 days): Increased sodium excretion and other markers of improved renal function respond positively
- frequency of LVP and/or volume of ascites removed over 90 days ([1]; 4500 mg per day group, 90 days, versus own history): reduced by more than half on average
- urinary output ([1]; 4500 mg per day group, most patients, from 500-1000 ml before, 'or more'): 1500 to 2000 mL
- response (need for LVP) ([1]; some patients, 2250 mg per day in combination with diuretics (furosemide and/or spironolactone)): enhanced response (decreased need for LVP)
- variability in the resulting dopamine levels [2]: high degree of variability
- efficacy in refractory ascites [3]: effective

SMILES: NCCc1ccc(O)c(O)c1 [dopamine]
- GFR ([4]; dopamine 1.5 ug/kg/min (Bacq 1991)): did not enhance
- urine volume and GFR ([4]; dopamine 2 ug/kg/min (Espiritu 1972)): non-significant increases
- changes of blood urea nitrogen, creatinine, creatinine clearance, blood pressure, pulse rate, serum sodium, serum aldosterone and GFR [4, 7]: no difference
- effective renal plasma flow [4, 7]: Positive effects
- GFR ([4]; dopamine 200 ug/min): did not significantly change
- urine volume, urine sodium or GFR ([4]; dopamine 1.3-3 ug/kg/min (Barnardo 1970)): did not change
- oral bioavailability [5]: not orally bioavailable
- oral bioavailability ([5]; listed as Dopamine): not bioavailable when administered orally
- effect at low rates of infusion ([6]; 0.5-2 mcg/kg/min, renal, mesenteric, coronary, intracerebral vascular beds): vasodilation
- effect at intermediate rates of infusion ([6]; 2-10 mcg/kg/min, beta1 adrenoceptor stimulation): improved myocardial contractility, increased sino-atrial rate and enhanced impulse conduction in the heart
- effect at higher rates of infusion ([6]; 10-20 mcg/kg/min, alpha-adrenoceptors): vasoconstrictor effects and a rise in blood pressure
- effect at very high rates of infusion ([6]; above 20 mcg/kg/min, alpha-adrenoceptor stimulation predominates): reversing renal dilation and natriuresis
- effect when administered intravenously ([6]; intravenous): natriuretic and positive inotropic effects

SMILES: Oc1ccc(C2CNCCc3c2cc(O)c(O)c3Cl)cc1 (centres unmarked) [fenoldopam]
- urine volume or urine sodium ([4]; Hadengue 1991): failed to increase
